Laboratory results: PubChem BioAssay AID1963875 (Molecular Pharmacology Branch, DTP, NCI, 2024)
pIC50: −log10 of the molar value.

Tested on: KRAS-mutant PDC complex spheroid viability
Assay: Anticancer human tumor 186277-243-T-J2-PDC patient-derived colon adenocarcinoma cell line growth inhibition [KRAS2]
Details: for pIC50: curve of first compound; for viability, T/C: stronger effect = lower value
Procedure, shortened: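 Combination screen of spheroid viability in tumor-cell co-cultures with endothelial (HUVEC) and mesenchymal stem cell stroma. Each agent was tested in half-log dilutions, topping at clinical Cmax or at 10 microM without a known Cmax.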

[1] = second compound 0.1 µM, first compound 0.01 µM
[2] = second compound 0.1 µM, first compound 0.0316 µM
[3] = second compound 0.1 µM, first compound 0.1 µM
[4] = second compound 0.1 µM, first compound 0.316 µM
[5] = second compound 0.1 µM, first compound 1 µM
[6] = second compound 0.1 µM, first compound 3.16 µM
[7] = second compound 0.316 µM, first compound 0.01 µM
[8] = second compound 0.316 µM, first compound 0.0316 µM
[9] = second compound 0.316 µM, first compound 0.1 µM
[10] = second compound 0.316 µM, first compound 0.316 µM
[11] = second compound 0.316 µM, first compound 1 µM
[12] = second compound 0.316 µM, first compound 3.16 µM
[13] = second compound 1 µM, first compound 0.0316 µM
[14] = second compound 1 µM, first compound 0.1 µM
[15] = second compound 1 µM, first compound 0.316 µM
[16] = second compound 1 µM, first compound 1 µM
[17] = second compound 1 µM, first compound 3.16 µM
[18] = second compound 3.16 µM, first compound 0.01 µM
[19] = second compound 3.16 µM, first compound 0.0316 µM
[20] = second compound 3.16 µM, first compound 0.1 µM
[21] = second compound 3.16 µM, first compound 0.316 µM
[22] = second compound 3.16 µM, first compound 1 µM
[23] = second compound 3.16 µM, first compound 3.16 µM
[24] = second compound 10 µM, first compound 0.0316 µM
[25] = second compound 10 µM, first compound 0.1 µM
[26] = second compound 10 µM, first compound 0.316 µM
[27] = second compound 10 µM, first compound 1 µM
[28] = second compound 10 µM, first compound 3.16 µM
[29] = second compound 0.1 µM, first compound 10 µM
[30] = second compound 0.316 µM, first compound 10 µM
[31] = second compound 1 µM, first compound 10 µM
[32] = second compound 3.16 µM, first compound 10 µM
[33] = second compound 10 µM, first compound 10 µM
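Throughout, for viability, T/C: viability read after seven days of compound exposure; 100% = DMSO vehicle-treated spheroids so lower means less viable.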

Row | Compound | pIC50 (second compound 0.1 µM) | pIC50 (second compound 0.316 µM) | pIC50 (second compound 1 µM) | pIC50 (second compound 3.16 µM) | viability, T/C [2] | viability, T/C [3] | viability, T/C [4] | viability, T/C [5] | viability, T/C [6] | viability, T/C [8] | viability, T/C [9] | viability, T/C [10] | viability, T/C [11] | viability, T/C [12] | viability, T/C [13] | viability, T/C [14] | viability, T/C [15] | viability, T/C [16] | viability, T/C [17] | viability, T/C [19] | also measured
1 | CC1COCCN1c1cc(-c2ccnn2C)c2ccnc(-c3ccn[nH]3)c2n1 (centres undefined) + C=CC(=O)N1CCN(c2nc(=O)n(-c3c(C)ccnc3C(C)C)c3nc(-c4c(O)cccc4F)c(F)cc23)C(C)C1 | 7.66 | 7.65 | 7.75 | 7.77 | 32.6% | 5.89% | 4.33% | 3.67% | 4.31% | 31.5% | 6.35% | 4.65% | 3.68% | 4.54% | 24.2% | 7.17% | 5.13% | 4.4% | 5.82% | 15.3% | pIC50 (second compound 10 µM): > 8.00; viability, T/C [1]: 87.5%; viability, T/C [7]: 94.6%; viability, T/C [18]: 79.5%; viability, T/C [20]: 7.75%; viability, T/C [21]: 5.93%; viability, T/C [22]: 6.25%; viability, T/C [23]: 8.7%; viability, T/C (second compound 10 µM, first compound 0.01 µM): 19.3%; viability, T/C [24]: 11.3%; viability, T/C [25]: 9.23%; viability, T/C [26]: 8.93%; viability, T/C [27]: 11.2%; viability, T/C [28]: 14.7%
2 | CC1OCC2(CCN(c3cnc(Sc4ccnc(N)c4Cl)c(N)n3)CC2)C1N (centres undefined) + C=CC(=O)N1CCN(c2nc(=O)n(-c3c(C)ccnc3C(C)C)c3nc(-c4c(O)cccc4F)c(F)cc23)C(C)C1 | < 5.00 | < 5.00 | < 5.00 | < 5.00 | 99.3% | 97% | 99.2% | 105% | 104% | 99.9% | 93.2% | 96.1% | 99.4% | 101% | 101% | 99% | 93.4% | 90.1% | 94.4% | 80.4% | pIC50 (second compound 10 µM): 6.35; viability, T/C [29]: 107%; viability, T/C [30]: 102%; viability, T/C [31]: 80.2%; viability, T/C [20]: 87.2%; viability, T/C [21]: 76.6%; viability, T/C [22]: 82.9%; viability, T/C [23]: 80.5%; viability, T/C [32]: 62.8%; viability, T/C [24]: 53.9%; viability, T/C [25]: 52.8%; viability, T/C [26]: 56.4%; viability, T/C [27]: 40.7%; viability, T/C [28]: 22.7%; viability, T/C [33]: 19.5%
3 | Cn1nccc1Nc1nccc(-c2cc3c(s2)C(C)(C)N(CCN2CCOCC2)C3=O)n1 + C=CC(=O)N1CCN(c2nc(=O)n(-c3c(C)ccnc3C(C)C)c3nc(-c4c(O)cccc4F)c(F)cc23)C(C)C1 | 6.38 | 6.29 | 6.30 | 6.54 | 101% | 89.7% | 62.6% | 10.8% | 5.84% | 92.9% | 91.9% | 73.7% | 15.9% | 7.21% | 97.5% | 85.5% | 74.2% | 12.6% | 8.16% | 89.1% | pIC50 (second compound 10 µM): 6.99; viability, T/C [29]: 9.07%; viability, T/C [30]: 9.45%; viability, T/C [31]: 10.1%; viability, T/C [20]: 83.5%; viability, T/C [21]: 47.4%; viability, T/C [22]: 9.35%; viability, T/C [23]: 11.3%; viability, T/C [32]: 9.1%; viability, T/C [24]: 70.3%; viability, T/C [25]: 50.8%; viability, T/C [26]: 12.8%; viability, T/C [27]: 5.63%; viability, T/C [28]: 2.98%; viability, T/C [33]: 2.56%
4 | CC(=O)OC12COC1CC(O)C1(C)C(=O)C(O)C3=C(C)C(OC(=O)C(O)C(NC(=O)OC(C)(C)C)c4ccccc4)CC(O)(C(OC(=O)c4ccccc4)C21)C3(C)C (centres undefined) + C=CC(=O)N1CCN(c2nc(OCC3CCCN3C)nc3c2CCN(c2cccc4cccc(C)c24)C3)CC1CC#N | > 8.00 | > 8.00 | > 8.00 | > 8.00 | 3.47% | 3.22% | 2.86% | 3.09% | 3.2% | 3.26% | 3.24% | 2.85% | 2.97% | 3.26% | 4.12% | 3.41% | 3% | 3.17% | 2.9% | 3.92% | pIC50 (second compound 0.0316 µM): > 8.00; viability, T/C (second compound 0.0316 µM, first compound 0.01 µM): 5.4%; viability, T/C (second compound 0.0316 µM, first compound 0.0316 µM): 3.51%; viability, T/C (second compound 0.0316 µM, first compound 0.1 µM): 2.98%; viability, T/C (second compound 0.0316 µM, first compound 0.316 µM): 2.96%; viability, T/C (second compound 0.0316 µM, first compound 1 µM): 3.29%; viability, T/C (second compound 0.0316 µM, first compound 3.16 µM): 3.21%; viability, T/C [1]: 4.93%; viability, T/C [7]: 3.71%; viability, T/C (second compound 1 µM, first compound 0.01 µM): 4.4%; viability, T/C [18]: 4.54%; viability, T/C [20]: 3.17%; viability, T/C [21]: 3.26%; viability, T/C [22]: 3.28%; viability, T/C [23]: 3.25%
